Results: patent publication US20100267827A1, “PHENYL-PRENYL-ETHER DERIVATIVES FOR THE TREATMENT OF COGNITIVE, NEURODEGENERATIVE OR NEURONAL DISEASES OR DISORDERS” (NOSCIRA, S.A., priority 2006, published 2010)

Columns and labels:
[1] = molecular target: T1, rhBACE-1 β-Secretase recombinant human (Homo sapiens, UniProt P56817); assay: BACE assay (FRET); type: biochemical; conditions: percentage of enzyme activity remaining
T1 construct: purchased R&D Systems 931-AS
Excerpt: The aim of this assay is to determine if a compound, either synthetic or of marine origin, is a BACE-1 inhibitor, to avoid the formation of Aβ. This assay is based on FRET technology (Fluorescence Resonance Energy Transfer). FRET is used to measure cleavage of a peptide substrate, among other uses. […] When a substrate peptide cleavage occurs, the energy balance is broken and all the donor fluorescence can be observed. The increase in fluorescence is linearly related to the rate of proteolysis (Gordon, G W et al., 1998). In this assay the reaction occurs between an enzyme, purified BACE-1, and a fluorogenic peptidic substrate who present the “Swedish mutation”. The peptide cleavage by BACE-1 produces fluorescence energy and enzymatic activity can be quantified.
The reagents which are used in this assay are the following:
rhBACE-1 β-Secretase recombinant human (R&D Systems. Ref. 931-AS).
Fluorogenic Peptide Substrate IV (R&D Systems. Ref. ES004).
Beta-SECRETASE INHIBITOR H-4848. (BACHEM. Ref. H-4848.0001).
The assay is carried out in a 96 wells microplate. The final concentration of substrate is 3.5 μM per well, and the enzyme concentration is 0.5 μg/ml. The final volume of the assay is 100 μl per well and all reagents are diluted in Reaction Buffer. The compounds are tested at a concentration of 10^−5 and 10^−6 M. The control in the assay is the commercial inhibitor R-Secretase inhibitor H-4848 from BACHEM, which is tested at 300 nM. All the samples and controls are studied by duplicate.
The plate is mixed gently and changes in the fluorescence are measured using a fluorimeter plate reader, with 320 nm excitation filter and 405 nm emission filter. The temperature should be preferably maintained between 25 and 30° C. Measurements are carried out every ten minutes during an hour. The first measure is subtracted from the last to calculate the fluorescence increase, evaluating the enzymatic activity. The 100% activity is calculated as the mean of the results of wells without sample or inhibitor.
In the cases where abnormal effects in fluorescence were detected, BACE inhibition activity was assayed using BACE-1 (beta-Secretase) FRET ASSAY KIT (Invitrogen, Ref. P2985). Fluorescence was measured with a fluorimeter plate reader, with 544 nm excitation filter and 580 nm emission filter.
(§1) The compounds of formula (I) of the present invention where submitted to the above indicated assays, in order to determine both their GSK-3 inhibition activity and BACE activity inhibition. The results are indicated in Table I, in percentage of the respective enzyme activity.

[2] = molecular target: recombinant human glycogen synthase kinase 3 beta (Homo sapiens, UniProt P49841); assay: GSK-3 beta inhibition assay; type: biochemical; conditions: 0.5 h, percentage of enzyme activity remaining; for remaining activity at 25 µM: 25 μM compound; for remaining activity at 50 µM: 50 μM compound
recombinant human glycogen synthase kinase 3 beta, sequence (P49841 whole entry): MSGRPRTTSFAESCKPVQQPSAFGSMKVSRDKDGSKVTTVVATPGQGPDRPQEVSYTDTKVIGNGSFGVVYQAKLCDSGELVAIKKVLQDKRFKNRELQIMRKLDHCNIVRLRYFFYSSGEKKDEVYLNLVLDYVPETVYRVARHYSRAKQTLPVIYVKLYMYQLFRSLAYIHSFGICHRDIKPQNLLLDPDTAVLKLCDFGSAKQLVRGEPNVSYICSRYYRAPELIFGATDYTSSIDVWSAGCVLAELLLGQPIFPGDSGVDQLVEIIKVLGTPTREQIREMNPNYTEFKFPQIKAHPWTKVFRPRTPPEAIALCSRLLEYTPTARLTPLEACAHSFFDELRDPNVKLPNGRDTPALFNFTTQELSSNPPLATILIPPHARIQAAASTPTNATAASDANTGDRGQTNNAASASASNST
Procedure: The GSK-3 beta activity of the compounds of formula (I) according to the present invention was determined by incubation of a mixture of recombinant human GSK-3 enzyme, a phosphate source and GSK-3 substrate in the presence and in the absence of the corresponding test compound, and by measuring the GSK-3 activity of this mixture. The compounds where tested at final concentrations of 25 and 50 μM.
Recombinant human glycogen synthase kinase 3 beta was assayed in MOPS 11 mM, pH 7.4, EDTA 0.2 mM, EGTA 1.25 mM, MgCl2 26.25 mM and sodium orthovanadate 0.25 mM in the presence of 62.5 μM of Phospho-Glycogen Synthase Peptide-2 (GS-2), 0.5 μCi gamma-^33P-ATP and unlabelled ATP at a final concentration of 12.5 μM. The final assay volume was 20 μl. After incubation for 30 minutes at 30° C., 15 μl aliquots were spotted onto P81 phosphocellulose papers. Filters were washed four times for at least 10 minutes each and counted with 1.5 ml of scintillation cocktail in a scintillation counter.
as §1

T1 sequence (P56817 46-457 limits assumed): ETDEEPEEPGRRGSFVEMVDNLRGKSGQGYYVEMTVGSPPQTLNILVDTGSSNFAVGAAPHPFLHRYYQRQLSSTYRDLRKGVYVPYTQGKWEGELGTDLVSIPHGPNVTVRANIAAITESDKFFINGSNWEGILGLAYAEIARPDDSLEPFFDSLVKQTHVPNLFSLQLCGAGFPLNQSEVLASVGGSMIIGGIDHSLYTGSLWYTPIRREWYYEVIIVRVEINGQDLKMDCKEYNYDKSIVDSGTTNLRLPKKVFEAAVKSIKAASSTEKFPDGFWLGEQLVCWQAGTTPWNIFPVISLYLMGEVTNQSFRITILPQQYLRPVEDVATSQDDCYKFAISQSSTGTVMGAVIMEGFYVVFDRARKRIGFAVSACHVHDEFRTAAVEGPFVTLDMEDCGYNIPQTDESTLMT

For `COc1ccc(C(=O)OC/C=C(\C)CCC=C(C)C)cc1OC/C=C(\C)CCC=C(C)C` [Compound 11, 3-(3,7-Dimethyl-octa-2,6-dienyloxy)-4-methoxy-benzoic acid 3,7-dimethyl-octa-2,6-dienyl ester], the “% of BACE activity” value ([1]; 1 μM compound) was 48 ± 2%, the “% of BACE activity” value ([1]; 10 μM compound) was 8 ± 3% and the remaining activity at 25 µM [2] was 84.8%. It also gave a remaining activity at 50 µM [2] of 58.2%.
With `COC(=O)c1ccc(OC)c(OC/C=C(\C)CCC=C(C)C)c1C/C=C(\C)CCC=C(C)C` [Compound 10] the “% of BACE activity” value ([1]; 1 μM compound) was 86.5 ± 5%, the “% of BACE activity” value ([1]; 10 μM compound) was 82 ± 10% and the remaining activity at 25 µM [2] was 56%. It also gave a remaining activity at 50 µM [2] of 19.5%.
`COc1ccc(C(=O)NC/C=C(\C)CCC=C(C)C)cc1OC/C=C(\C)CCC=C(C)C` [Compound 12, N-(3,7-Dimethyl-octa-2,6-dienyl)-3-(3,7-dimethyl-octa-2,6-dienyloxy)-4-methoxy-benzamide] was tested, and the “% of BACE activity” value ([1]; 1 μM compound) was 99 ± 7%, the “% of BACE activity” value ([1]; 10 μM compound) was 42 ± 18% and the remaining activity at 25 µM [2] was 47.5%. For the same compound, the remaining activity at 50 µM [2] was 27.9%.
In the case of `CC(C)=CCC/C(C)=C/CC/C(C)=C/COc1ccc(C(=O)O)cc1OC/C=C(\C)CC/C=C(\C)CCC=C(C)C` [Compound 24, 3,4-Bis-(3,7,11-trimethyl-dodeca-2,6,10-trienyloxy)-benzoic acid], the “% of BACE activity” value ([1]; 1 μM compound) is reported as 30 ± 7%, the “% of BACE activity” value ([1]; 10 μM compound) is reported as 26 ± 13% and the remaining activity at 25 µM [2] is reported as 12.4%. For the same compound, the remaining activity at 50 µM [2] was 4.55%.
`COCOC(=O)c1ccc(OC)c(OC/C=C(\C)CCC=C(C)C)c1` [Compound 23, 3-(3,7-Dimethyl-octa-2,6-dienyloxy)-4-methoxy-benzoic acid methoxymethyl ester] was tested, and the “% of BACE activity” value ([1]; 1 μM compound) was 61 ± 133%, the “% of BACE activity” value ([1]; 10 μM compound) was 0% and the remaining activity at 25 µM [2] was 53%. It also gave a remaining activity at 50 µM [2] of 18.6%.
With `CCOC(=O)c1ccc(O)c(OC/C=C(\C)CCC=C(C)C)c1` [Compound 27] the “% of BACE activity” value ([1]; 1 μM compound) was 100%, the “% of BACE activity” value ([1]; 10 μM compound) was 50 ± 16% and the remaining activity at 25 µM [2] was 48.3%. For the same compound, the remaining activity at 50 µM [2] was 7.61%.
With `COC(=O)c1cccc(OC/C=C(\C)CCC=C(C)C)c1` [Compound 5] the “% of BACE activity” value ([1]; 1 μM compound) was 13.3%, the “% of BACE activity” value ([1]; 10 μM compound) was 0% and the remaining activity at 25 µM [2] was 94.4%. The remaining activity at 50 µM [2] was 80.7%.
In the case of `CC(C)=CCC/C(C)=C/COc1cc(C(=O)O)ccc1O` [Compound 28], the “% of BACE activity” value ([1]; 1 μM compound) is reported as 100%, the “% of BACE activity” value ([1]; 10 μM compound) is reported as 89 ± 6% and the remaining activity at 25 µM [2] is reported as 90.8%. It also gave a remaining activity at 50 µM [2] of 95.7%.
In the case of `COC(=O)c1ccc(NC(C)=O)c(OC/C=C(\C)CC/C=C(\C)CCC=C(C)C)c1` [Compound 20], the “% of BACE activity” value ([1]; 1 μM compound) is reported as 2 ± 4.5%, the “% of BACE activity” value ([1]; 10 μM compound) is reported as 0% and the remaining activity at 25 µM [2] is reported as 74.4%. It also gave a remaining activity at 50 µM [2] of 40%.
In the case of `COC(=O)c1ccc(N)c(OC/C=C(\C)CC/C=C(\C)CCC=C(C)C)c1` [Compound 9, 4-Amino-3-(3,7,11-trimethyl-dodeca-2,6,10-trienyloxy)-benzoic acid methyl ester], the “% of BACE activity” value ([1]; 1 μM compound) is reported as 100%, the “% of BACE activity” value ([1]; 10 μM compound) is reported as 80 ± 13% and the remaining activity at 25 µM [2] is reported as 91.7%. The remaining activity at 50 µM [2] was 59.5%.
In the case of `COC(=O)c1ccc(NC(C)=O)c(OC/C=C(\C)CCC=C(C)C)c1` [Compound 19, 4-Acetylamino-3-(3,7-dimethyl-octa-2,6-dienyloxy)-benzoic acid methyl ester], the “% of BACE activity” value ([1]; 1 μM compound) is reported as 3.5 ± 5%, the “% of BACE activity” value ([1]; 10 μM compound) is reported as 0% and the remaining activity at 50 µM [2] is reported as 85.1%.
`COC(=O)c1ccc(OC)c(OC/C=C(\C)CCC=C(C)C)c1` [Compound 2, 3-(3,7-Dimethyl-octa-2,6-dienyloxy)-4-methoxy-benzoic acid methyl ester] was tested, and the “% of BACE activity” value ([1]; 1 μM compound) was 100%, the “% of BACE activity” value ([1]; 10 μM compound) was 18.5 ± 12.1% and the remaining activity at 25 µM [2] was 88.1%. For the same compound, the remaining activity at 50 µM [2] was 68%.
For `COC(=O)c1ccc(N)c(OC/C=C(\C)CCC=C(C)C)c1` [Compound 8, 4-Amino-3-(3,7-dimethyl-octa-2,6-dienyloxy)-benzoic acid methyl ester], the “% of BACE activity” value ([1]; 1 μM compound) was 100%, the “% of BACE activity” value ([1]; 10 μM compound) was 81 ± 8% and the remaining activity at 25 µM [2] was 85.6%. It also gave a remaining activity at 50 µM [2] of 71%.
`CC(C)=CCC/C(C)=C/CC/C(C)=C/COc1cc(C(=O)O)ccc1N` [Compound 17, 4-Amino-3-(3,7,11-trimethyl-dodeca-2,6,10-trienyloxy)-benzoic acid] was tested, and the “% of BACE activity” value ([1]; 1 μM compound) was 100%, the “% of BACE activity” value ([1]; 10 μM compound) was 79 ± 13% and the remaining activity at 25 µM [2] was 90.4%. It also gave a remaining activity at 50 µM [2] of 65.5%.
`COc1ccc(C(=O)OCC=C(C)C)cc1OC/C=C(\C)CCC=C(C)C` [Compound 13] was tested, and the “% of BACE activity” value ([1]; 1 μM compound) was 49 ± 5%, the “% of BACE activity” value ([1]; 10 μM compound) was 0% and the remaining activity at 25 µM [2] was 54.6%. The remaining activity at 50 µM [2] was 7.36%.
`CC(C)=CCC/C(C)=C/COc1cccc(C(=O)O)c1` [Compound 6] was tested, and the “% of BACE activity” value ([1]; 1 μM compound) was 87.5 ± 17%, the “% of BACE activity” value ([1]; 10 μM compound) was 36.5 ± 38% and the remaining activity at 25 µM [2] was 70.3%. For the same compound, the remaining activity at 50 µM [2] was 80%.
In the case of `CC(=O)Nc1ccc(C(=O)O)cc1OC/C=C(\C)CC/C=C(\C)CCC=C(C)C` [Compound 21, 4-Acetylamino-3-(3,7,11-trimethyl-dodeca-2,6,10-trienyloxy)-benzoic acid], the “% of BACE activity” value ([1]; 1 μM compound) is reported as 68.5 ± 0.7%, the “% of BACE activity” value ([1]; 10 μM compound) is reported as 29 ± 10% and the remaining activity at 25 µM [2] is reported as 90%. For the same compound, the remaining activity at 50 µM [2] was 57.5%.
